Measured values published in US20130034594A1, “FIBERS CONTAINING FERRATES AND METHODS” (BATTELLE MEMORIAL INSTITUTE, priority 2010, published 2013).

How the values were obtained:
[1] = Thermal stability of sodium ferrate(VI) (temperature limit); format: physicochemical
Excerpt: The ferrate fiber of the present invention can disperse the ferrate formulation mentioned above into one or more suitable polymers to produce the ferrate fiber. Broadly, a formulation of the ferrate is mixed/blended with at least one nonaqueous polymer, and then the mixture can be dispersed and cooled to solidify into the fiber of the present invention. The nonaqueous polymer is defined above. A conventional extrusion method can be used to co-extrude/disperse the ferrate/polymer mixture. Preferably, the polymer is in a liquid form before blending with the ferrate formulation. The polymer can be melted into a liquid polymer before blending. The ferrate is highly oxidative so it is normally not placed in contact with any high temperature organic polymer, nor is it co-extruded/dispersed with other polymers under a relatively high temperature using a conventional extrusion method. Such blending and co-extrusion might decompose the ferrate prematurely. […] Most suitable polymers can melt at a much lower temperature. Therefore, the ferrate(VI) can be blended and then co-extruded/dispersed with one or more melted liquid polymers without causing the ferrate to decompose prematurely even using a relatively vigorous conventional extrusion method.

[2] = Thermal storage stability under Army Regulation (AR) 70-38 test conditions; format: physicochemical
Description: Unexpectedly, unlike all peroxide materials, we found potassium ferrate(VI) to be thermally stable as defined by Army Regulation (AR) 70-38 test conditions. Therefore potassium ferrate(VI) was determined to be stable to storage for long periods, at least 98 days at 71° C., and at least 82 days under conditions of cycling daily from 23° C. to 71° C. and back again. […] In these tests, losses with time varied slightly with test vials ranging from <1% to 10% (±3%) loss respectively after the test periods given.

stable up to (temperature) [1] | stable to storage (time) ([2]; at 71° C., pure (80-100% analytical grade) or moderate purity (50-80% technical grade)) | stable to storage (time) ([2]; cycling daily from 23° C. to 71° C. and back again, pure or technical grade) | Compound | estimated storage stability ([2]; estimated from the AR 70-38 results)
up to 270 °C | – | – | [Na+].[Na+].[O]=[Fe](=[O])([O-])[O-] [sodium ferrate(VI)] | –
– | at least 98 days | at least 82 days | potassium ferrate(VI) | sufficiently stable for several years of storage
